We go through one compound from US20040171616A9, “Polycyclic aryl and heteroaryl substituted 1,4-quinones useful for selective inhibition of the coagulation cascade” (priority 2000, published 2004).

Assay [1] has as its target T1, recombinant soluble tissue factor and recombinant human factor VIIa (Homo sapiens, UniProt P08709).
T1 construct: purchased American Diagnostica, Greenwich Conn; (factor VIIa); host or cells: soluble TF made in house in E. coli
Briefly: TF-VIIa Assay. The settings on record: chromogenic substrate, 60 min at room temperature, OD 405 nm. In kind it is biochemical.
Protocol: In this assay 100 nM recombinant soluble tissue factor and 2 nM recombinant human factor VIIa are added to a 96-well assay plate containing 0.4 mM of the substrate, N-Methylsulfonyl-D-phe-gly-arg-p-nitroaniline and either inhibitor or buffer (5 mM CaCl2,50 mM Tris-HCl, pH 8.0, 100 mM NaCl, 0.1% BSA). The reaction, in a final volume of 100 ul is measured immediately at 405 nm to determine background absorbance. The plate is incubated at room temperature for 60 min, at which time the rate of hydrolysis of the substrate is measured by monitoring the reaction at 405 nm for the release of p-nitroaniline. Percent inhibition of TF-VIIa activity is calculated from OD405 nm value from the experimental and control sample.
Recombinant soluble TF, consisting of amino acids 1-219 of the mature protein sequence was expressed in E. coli and purified using a Mono Q Sepharose FPLC. Recombinant human VIIa was purchased from American Diagnostica, Greenwich Conn. and chromogenic substrate N-Methylsulfonyl-D-phe-gly-arg-p-nitroaniline was prepared by American Peptide Company, Inc., Sunnyvale, Calif.

A further assay addresses T2, human factor Xa (Homo sapiens, UniProt P00742).
T2 construct: purchased Enzyme Research Laboratories, South Bend Ind
The assay can be described thus: Xa Assay. The settings on record: percent inhibition of Xa activity; test concentration not given; 60 min. The assay is classed as biochemical.

T1 sequence (P08709 213-466 limits assumed): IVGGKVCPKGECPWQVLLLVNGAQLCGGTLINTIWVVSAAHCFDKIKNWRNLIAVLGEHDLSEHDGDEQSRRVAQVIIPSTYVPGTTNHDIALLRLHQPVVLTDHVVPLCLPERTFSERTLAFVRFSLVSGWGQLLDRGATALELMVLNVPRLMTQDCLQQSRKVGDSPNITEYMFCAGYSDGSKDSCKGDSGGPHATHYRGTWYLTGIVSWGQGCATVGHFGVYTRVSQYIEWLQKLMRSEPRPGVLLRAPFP
T1 sequence (P08709 61-212 limits assumed): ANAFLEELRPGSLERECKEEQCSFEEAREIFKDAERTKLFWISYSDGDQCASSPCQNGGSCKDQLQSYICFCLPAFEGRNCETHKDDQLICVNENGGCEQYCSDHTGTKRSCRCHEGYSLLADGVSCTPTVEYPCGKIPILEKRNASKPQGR
T1 sequence (P13726 33-251 partner limits assumed): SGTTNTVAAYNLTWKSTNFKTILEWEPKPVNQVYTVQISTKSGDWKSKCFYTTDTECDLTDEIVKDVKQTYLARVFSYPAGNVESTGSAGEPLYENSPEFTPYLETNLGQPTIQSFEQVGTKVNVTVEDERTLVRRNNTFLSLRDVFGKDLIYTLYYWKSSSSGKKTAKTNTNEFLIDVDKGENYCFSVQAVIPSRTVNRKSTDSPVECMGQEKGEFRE
T2 sequence (P00742 235-488 limits assumed): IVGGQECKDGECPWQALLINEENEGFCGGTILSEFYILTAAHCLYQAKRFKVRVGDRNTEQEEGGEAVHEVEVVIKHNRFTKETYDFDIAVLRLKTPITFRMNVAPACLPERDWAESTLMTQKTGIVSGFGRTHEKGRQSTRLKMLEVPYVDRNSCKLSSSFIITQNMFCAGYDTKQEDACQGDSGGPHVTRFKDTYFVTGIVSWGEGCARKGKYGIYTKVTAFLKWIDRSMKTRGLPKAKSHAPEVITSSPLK
T2 sequence (P00742 41-179 limits assumed): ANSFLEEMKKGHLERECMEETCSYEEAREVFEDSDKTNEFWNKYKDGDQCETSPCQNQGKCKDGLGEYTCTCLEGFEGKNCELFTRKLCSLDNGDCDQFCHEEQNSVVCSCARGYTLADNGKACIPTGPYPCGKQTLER
Protocol for human factor Xa: 0.3 nM human factor Xa and 0.15 mM N-α-Benzyloxycarbonyl-D-arginyl-L-glycyl-L-arginine-p-nitroaniline-dihydrochloride (S-2765) are added to a 96-well assay plate containing either inhibitor or buffer (50 mM Tris-HCl, pH 8.0, 100 mM NaCl, 0.1% BSA). The reaction, in a final volume of 100 ul is measured immediately at 405 nm to determine background absorbance. The plate is incubated at room temperature for 60 min, at which time the rate of hydrolysis of the substrate is measured by monitoring the reaction at 405 nm for the release of p-nitroaniline. Percent inhibition of Xa activity is calculated from OD405 nm value from the experimental and control sample.
Factor Xa was obtained from Enzyme Research Laboratories, South Bend Ind., thrombin from Calbiochem, La Jolla, Calif., and trypsin and L-BAPNA from Sigma, St. Louis Mo. The chromogenic substrates S-2765 and S-2238 were purchased from Chromogenix, Sweden.

As for `N=C(N)c1ccc(CNC(=O)CC2=C(c3ccccc3)C(=O)C=C(NCCc3ccccc3)C2=O)cc1` [Example 2], in assay [1], the “TF-VIIA IC50” value worked out at 13 µM. At human factor Xa, the “Factor Xa (cell printed as %, in the IC50 column)” value came to 13%.
